Test results as given in ChEMBL document CHEMBL5728754 (2021).
pKi: −log10 of the molar value.

These compounds were tested against Mitogen-activated protein kinase kinase kinase kinase 1 (Homo sapiens, UniProt Q92918) (assay: HPK1 Biochemical Enzyme Assay: HPK1 enzyme inhibition was measured using a microfluidic mobility shift assay (MSA). The reactions were conducted in 50 μL volumes in 96-well plates, and contained 0.5 nM human full-length recombinant HPK1, 3 μM phosphoacceptor peptide, 5FAM-[…]-COOH (CPC Scientific, Sunnyvale, Calif.), test compound (11-dose 3-fold serial dilutions, 2% DMSO final) or DMSO only, 0.002% Tween-20, 1 mM DTT and 2.5 mM MgCl2 in 50 mM MOPS (3-(N-morpholino)propanesulfonic acid), pH 7.8, buffer and were initiated by addition of 75 μM ATP, following a 20-min preincubation. The reactions were conducted for 60 min at 37° C., stopped by the addition of 50 μL of 0.015 M EDTA, pH 8, and the extent of reactions (˜15-20% conversion with no inhibitor) was determined after electrophoretic separation of the fluorescently labeled peptide substrate and phosphorylated product on an LabChip EZ Reader II (PerkinElmer, Inc., Waltham, Mass.).Inhibition of HPK1 was also measured using the fluorescence based chelation-enhanced fluorescence (CHEF) method (1), using a proprietary fluorescent peptide substrate, in which a cysteine residue is alkylated with a sulfonamido-oxine based derivative to afford an amino acid termed C-Sox (CSx). The assay was conducted similarly as described for the MSA method above, but using 3 μM Ac-[CSx][…]-amide peptide substrate (also known as AQT0178 when purchased from AssayQuant Technologies Inc., Hopkinton, Mass.) and 45 μM ATP. Initial reaction velocities were determined by following the peptide fluorescence (λex=360 nm, λem=500 nm) at 30° C. for 15 min in a Tecan M1000 plate reader (Tecan Group Ltd., Männedorf, Zürich, Switzerland). […] HPK1 protein was produced in-house and preactivated by autophosphorylation of enzyme with MgATP as described in the section “Production of recombinant autophosphorylated full-length HPK1”.).
Mitogen-activated protein kinase kinase kinase kinase 1, sequence (Q92918 whole entry): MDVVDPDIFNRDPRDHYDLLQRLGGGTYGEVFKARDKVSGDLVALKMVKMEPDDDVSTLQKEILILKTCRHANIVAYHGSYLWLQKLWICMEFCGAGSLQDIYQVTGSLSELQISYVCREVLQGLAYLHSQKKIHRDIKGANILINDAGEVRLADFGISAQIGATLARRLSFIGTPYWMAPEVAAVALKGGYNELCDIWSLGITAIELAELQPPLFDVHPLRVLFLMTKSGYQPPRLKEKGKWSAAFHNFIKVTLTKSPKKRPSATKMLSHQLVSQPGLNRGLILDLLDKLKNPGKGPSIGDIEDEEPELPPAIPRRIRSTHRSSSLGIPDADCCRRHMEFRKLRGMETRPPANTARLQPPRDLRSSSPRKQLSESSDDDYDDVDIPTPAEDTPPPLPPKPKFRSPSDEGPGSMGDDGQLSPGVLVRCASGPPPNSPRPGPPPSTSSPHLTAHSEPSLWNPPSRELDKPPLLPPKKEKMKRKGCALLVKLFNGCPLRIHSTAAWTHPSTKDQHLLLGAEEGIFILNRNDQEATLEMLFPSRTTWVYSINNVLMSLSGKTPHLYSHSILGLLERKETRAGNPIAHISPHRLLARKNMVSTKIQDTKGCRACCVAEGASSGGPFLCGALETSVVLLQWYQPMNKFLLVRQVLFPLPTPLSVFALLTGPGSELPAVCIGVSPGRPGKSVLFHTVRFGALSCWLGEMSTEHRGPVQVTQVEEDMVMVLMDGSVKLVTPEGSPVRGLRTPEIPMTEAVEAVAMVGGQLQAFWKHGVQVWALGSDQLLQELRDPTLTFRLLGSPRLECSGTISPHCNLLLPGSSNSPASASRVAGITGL
Type: single protein

Row | pKi | Compound
1 | 10.00 | Cc1nnc(-c2cccc(N3Cc4c(cc(N5CCCC5(C)C)nc4CN)C3=O)n2)n1C(C)C
2 | 9.14 | CNCc1nc(NC)cc2c1CN(c1cccc(-c3nncn3C(C)C)n1)C2=O
3 | 10.05 | CCn1c(C)nnc1-c1cccc(N2Cc3c(cc(N4CCC[C@H]4C)nc3CNC)C2=O)n1
4 | > 10.15 | CNCc1nc(N2CCCC2)cc2c1CN(c1cccc(-c3nncn3[C@@H](C)CC(F)(F)F)n1)C2=O
